Test results published in patent US20230053540A1, “TREATMENT OF LIVER INJURY” (Massachusetts Institute of Technology, priority 2019, published 2023).

Test system: hepatocytes
Assay: Seq-Well scRNA-Seq of hepatocytes after APAP overdose (signature scores, DEG vs untreated)
Type: in vivo, mouse
[1] = cluster A96, DEG between treatment (APAP and PH)
[2] = fraction of A96 (APAP, 96 h) hepatocytes expressing the gene
[3] = hepatocyte cluster A96 (APAP, 96 h) vs all other clusters

## CC(=O)Nc1ccc(O)cc1 [APAP, acetaminophen]
[1]
  avg_logFC, gene Decr2: 0.3018
  avg_logFC, gene Dhdh: 0.2626
  avg_logFC, gene Etfdh: 0.2639
  avg_logFC, gene Etnppl: 0.3154
  avg_logFC, gene F5: 0.2566
  avg_logFC, gene Fmo1: 0.265
  avg_logFC, gene G0s2: 0.2656
  avg_logFC, gene G6pc: 0.2541
  avg_logFC, gene Gabarapl1: 0.2932
  avg_logFC, gene Gadd45b: 0.2598
  avg_logFC, gene Gas5: 0.2823
  avg_logFC, gene Gm4952: 0.2581
  avg_logFC, gene Gsta2: 0.311
  avg_logFC, gene Gstt3: 0.3026
  avg_logFC, gene Gyk: 0.3134
  avg_logFC, gene Hmgcl: 0.2744
  avg_logFC, gene Hmgcs1: 0.3251
  avg_logFC, gene Hpgd: 0.3412
  avg_logFC, gene Hsd17b7: 0.3028
  avg_logFC, gene Hsd17b10: 0.2802
  avg_logFC, gene Igfbp1: 0.2603
  avg_logFC, gene Kif1b: 0.2961
  avg_logFC, gene Lcat: 0.2616
  avg_logFC, gene Mia3: 0.2604
  avg_logFC, gene Ndufa3: 0.2743
  avg_logFC, gene Ndufa7: 0.26
  avg_logFC, gene Nr1i3: 0.3481
  avg_logFC, gene Oat: 0.4904
  avg_logFC, gene Pon1: 0.2899
  avg_logFC, gene Por: 0.2867
  avg_logFC, gene Ppp1r3b: 0.251
  avg_logFC, gene Ppp2r5a: 0.3505
  avg_logFC, gene Ptms: 0.2863
  avg_logFC, gene Pxmp4: 0.2555
  avg_logFC, gene Rdh16: 0.3477
  avg_logFC, gene Rdx: 0.2566
  avg_logFC, gene Rgn: 0.3686
  avg_logFC, gene Sc4mol: 0.3361
  avg_logFC, gene Slc4a4: 0.2977
  avg_logFC, gene Slc25a20: 0.2507
  avg_logFC, gene Slco1a4: 0.3049
  avg_logFC, gene Snord118: 0.3782
  avg_logFC, gene Tgoln1: 0.2809
  avg_logFC, gene Tmed5: 0.2523
  avg_logFC, gene Tobi: 0.2958
  avg_logFC, gene Tsc22d3: 0.3363
  avg_logFC, gene Zfp36l1: 0.2964
  avg_logFC, gene Zfp91: 0.2775
[2]
  pct.1 8430408G22Rik: 0.559
  pct.1 Acot12: 0.65
  pct.1 Agpat6: 0.743
  pct.1 Aplp2: 0.826
  pct.1 Apoc2: 0.901
  pct.1 Apol7a: 0.559
  pct.1 Aqp9: 0.801
  pct.1 Arl4a: 0.517
  pct.1 Brap: 0.642
  pct.1 Cd36: 0.299
  pct.1 Cebpb: 0.585
  pct.1 Cede107: 0.59
  pct.1 Ces1e: 0.71
  pct.1 Ces1f: 0.895
  pct.1 Cisd1: 0.781
  pct.1 Cpeb4: 0.527
  pct.1 Cpox: 0.634
  pct.1 Cxcl12: 0.635
  pct.1 D4Wsu53e: 0.597
  pct.1 D17Wsu92e: 0.771
  pct.1 Dcxr: 0.735
  pct.1 Dhdh: 0.734
  pct.1 Ech1: 0.917
  pct.1 Ehhadh: 0.78
  pct.1 Ephx1: 0.879
  pct.1 Etfdh: 0.811
  pct.1 Etnppl: 0.677
  pct.1 Fmo1: 0.606
  pct.1 Gclm: 0.865
  pct.1 Hamp2: 0.203
  pct.1 Hsd17b7: 0.56
  pct.1 Lcat: 0.886
  pct.1 Mocs2: 0.737
  pct.1 Mtdh: 0.649
  pct.1 Ndufa3: 0.737
  pct.1 Ndufb2: 0.731
  pct.1 Nfe2l2: 0.465
  pct.1 Oat: 0.653
  pct.1 Pabpc1: 0.766
  pct.1 Pdk1: 0.438
  pct.1 Prkd3: 0.682
  pct.1 Ptp4a2: 0.691
  pct.1 Rgn: 0.899
  pct.1 Sdhc: 0.76
  pct.1 Sdhd: 0.775
  pct.1 Slc4a4: 0.609
  pct.1 Slc25a10: 0.701
  pct.1 Tgoln1: 0.756
  pct.1 Tmed5: 0.714
  pct.1 Tmem106b: 0.727
  pct.1 Tob1: 0.649
  pct.1 Tsc22d3: 0.534
  pct.1 Usmg5: 0.59
  pct.1 Zfp91: 0.693
Gene Atp2a2, time point A96
  pct.1 Atp2a2: 0.64
Gene Atp2a2, time point A96 vs untreated (UT)
  avg_logFC Atp2a2: 0.2537
Gene Csad, time point A96
  pct.1 Csad: 0.843
Gene Csad, time point A96 vs untreated (UT)
  avg_logFC Csad: 0.2906
Gene Eef1b2, time point A96
  pct.1 Eef1b2: 0.743
Gene Eef1b2, time point A96 vs untreated (UT)
  avg_logFC Eef1b2: −0.2686
Gene Etnppl, time point A96
  pct.1 Etnppl: 0.677
Gene Etnppl, time point A96 vs untreated (UT)
  avg_logFC Etnppl: 0.407
Gene Fos, time point A96
  pct.1 Fos: 0.619
Gene Fos, time point A96 vs untreated (UT)
  avg_logFC Fos: 0.3272
Gene Ftl1, time point A96
  pct.1 Ftl1: 0.363
Gene Ftl1, time point A96 vs untreated (UT)
  avg_logFC Ftl1: −0.2798
Gene Gm20594, time point A96
  pct.1 Gm20594: 0.262
Gene Gm20594, time point A96 vs untreated (UT)
  avg_logFC Gm20594: −0.2928
Gene Hes6, time point A96
  pct.1 Hes6: 0.33
Gene Hes6, time point A96 vs untreated (UT)
  avg_logFC Hes6: −0.2781
Gene Hsd3b3, time point A96
  pct.1 Hsd3b3: 0.499
Gene Hsd3b3, time point A96 vs untreated (UT)
  avg_logFC Hsd3b3: −0.313
Gene Hsd17b2, time point A96
  pct.1 Hsd17b2: 0.614
Gene Hsd17b2, time point A96 vs untreated (UT)
  avg_logFC Hsd17b2: −0.3005
Gene Hsd17b13, time point A96
  pct.1 Hsd17b13: 0.755
Gene Hsd17b13, time point A96 vs untreated (UT)
  avg_logFC Hsd17b13: 0.2678
Gene Ifi27, time point A96
  pct.1 Ifi27: 0.325
Gene Ifi27, time point A96 vs untreated (UT)
  avg_logFC Ifi27: −0.2572
Gene Ifitm3, time point A96
  pct.1 Ifitm3: 0.742
Gene Ifitm3, time point A96 vs untreated (UT)
  avg_logFC Ifitm3: −0.2797
Gene Krt8, time point A96
  pct.1 Krt8: 0.47
Gene Krt8, time point A96 vs untreated (UT)
  avg_logFC Krt8: −0.265
Gene Malat1, time point A96
  pct.1 Malat1: 0.702
Gene Malat1, time point A96 vs untreated (UT)
  avg_logFC Malat1: −0.4647
Gene Mup2, time point A96
  pct.1 Mup2: 0.256
Gene Mup2, time point A96 vs untreated (UT)
  avg_logFC Mup2: −0.5008
Gene Mup4, time point A96
  pct.1 Mup4: 0.824
Gene Mup4, time point A96 vs untreated (UT)
  avg_logFC Mup4: −0.6934
Gene Naa50, time point A96
  pct.1 Naa50: 0.517
Gene Naa50, time point A96 vs untreated (UT)
  avg_logFC Naa50: 0.2658
Gene Ndufb11, time point A96
  pct.1 Ndufb11: 0.669
Gene Ndufb11, time point A96 vs untreated (UT)
  avg_logFC Ndufb11: −0.2832
Gene Nme1, time point A96
  pct.1 Nme1: 0.561
Gene Nme1, time point A96 vs untreated (UT)
  avg_logFC Nme1: −0.2724
Gene Oat, time point A96
  pct.1 Oat: 0.653
Gene Oat, time point A96 vs untreated (UT)
  avg_logFC Oat: 0.3439
Gene Pnpla7, time point A96
  pct.1 Pnpla7: 0.455
Gene Pnpla7, time point A96 vs untreated (UT)
  avg_logFC Pnpla7: −0.3397
Gene Prdx4, time point A96
  pct.1 Prdx4: 0.517
Gene Prdx4, time point A96 vs untreated (UT)
  avg_logFC Prdx4: −0.314
Gene Psmb1, time point A96
  pct.1 Psmb1: 0.703
Gene Psmb1, time point A96 vs untreated (UT)
  avg_logFC Psmb1: −0.2659
Gene Psmb5, time point A96
  pct.1 Psmb5: 0.241
Gene Psmb5, time point A96 vs untreated (UT)
  avg_logFC Psmb5: −0.2633
Gene Rarres1, time point A96
  pct.1 Rarres1: 0.274
Gene Rarres1, time point A96 vs untreated (UT)
  avg_logFC Rarres1: −0.2874
Gene Rgn, time point A96
  pct.1 Rgn: 0.899
Gene Rgn, time point A96 vs untreated (UT)
  avg_logFC Rgn: 0.2614
Gene Rpl32, time point A96
  pct.1 Rpl32: 0.689
Gene Rpl32, time point A96 vs untreated (UT)
  avg_logFC Rpl32: −0.2631
Gene Rpl41, time point A96
  pct.1 Rpl41: 0.274
Gene Rpl41, time point A96 vs untreated (UT)
  avg_logFC Rpl41: −0.2575
Gene Rps8, time point A96
  pct.1 Rps8: 0.378
Gene Rps8, time point A96 vs untreated (UT)
  avg_logFC Rps8: −0.2585
Gene Rps15, time point A96
  pct.1 Rps15: 0.468
Gene Rps15, time point A96 vs untreated (UT)
  avg_logFC Rps15: −0.2545
Gene Selk, time point A96
  pct.1 Selk: 0.393
Gene Selk, time point A96 vs untreated (UT)
  avg_logFC Selk: −0.2647
Gene Serp1, time point A96
  pct.1 Serp1: 0.671
Gene Serp1, time point A96 vs untreated (UT)
  avg_logFC Serp1: −0.2992
Gene Ubb, time point A96
  pct.1 Ubb: 0.379
Gene Ubb, time point A96 vs untreated (UT)
  avg_logFC Ubb: −0.2685
Gene mmu-mir-6236, time point A96
  pct.1 mmu-mir-6236: 0.801
Gene mmu-mir-6236, time point A96 vs untreated (UT)
  avg_logFC mmu-mir-6236: −0.6272
Gene mt-Atp6, time point A96
  pct.1 mt-Atp6: 0.43
Gene mt-Atp6, time point A96 vs untreated (UT)
  avg_logFC mt-Atp6: −0.3955
[3]
  avg_logFC 8430408G22Rik: 0.2774
  avg_logFC Acot12: 0.2802
  avg_logFC Agpat6: 0.2753
  avg_logFC Aplp2: 0.2569
  avg_logFC Apoc2: 0.2872
  avg_logFC Apol7a: 0.3029
  avg_logFC Aqp9: 0.2901
  avg_logFC Arl4a: 0.2934
  avg_logFC Brap: 0.2572
  avg_logFC Cd36: 0.2782
  avg_logFC Cebpb: 0.2515
  avg_logFC Cede107: 0.2626
  avg_logFC Ces1e: 0.3109
  avg_logFC Ces1f: 0.2782
  avg_logFC Cisd1: 0.282
  avg_logFC Cpeb4: 0.2994
  avg_logFC Cpox: 0.2562
  avg_logFC Crls1: 0.255
  avg_logFC Cxcl12: 0.3005
  avg_logFC D4Wsu53e: 0.2925
  avg_logFC D17Wsu92e: 0.258
  avg_logFC Dcxr: 0.2522
  avg_logFC Dhdh: 0.2593
  avg_logFC Ech1: 0.2509
  avg_logFC Ehhadh: 0.2545
  avg_logFC Ephx1: 0.252
  avg_logFC Etfdh: 0.2768
  avg_logFC Etnppl: 0.411
